Where two headings read alike, the source gives them in different places.
Test: Pharmacokinetic study in rats (oral gavage and tail vein injection, plasma LC-MS/MS)
Format: in vivo
Settings: rat; for Cmax: read-out: Cmax
Description: Male SPF-grade SD rats (Beijing Vital River Laboratory Animal Technology Co., Ltd.) with a body weight range of 200 to 250 g were used. After acclimatization, the rats were administered a clear solution of the compound of the present disclosure via oral gavage (Po, fasted overnight before administration with free access to water, food returned 4 hours after administration) and tail vein injection (Iv, free access to food and water throughout the administration). Blood samples were collected from the orbital venous plexus/jugular vein of rats at specified time points after administration (blood collection time points for the PO group: 0.167, 0.5, 1, 2, 4, 6, 8, and 24 h; for the IV group: 0.033, 0.167, 1, 2, 4, 6, 8, and 24 h). The concentration of compounds in plasma was detected by LC-MS/MS (AB SCIEX Qtrap4500). Data were analyzed using WinNonlin (version 5.2.1 Pharsight, Mountain View, CA) with a non-compartmental model to obtain PK parameters (including Cmax, C0, Tmax, AUClast, AUCinf, T1/2, etc.).
Table 3: Results of in vivo pharmacokinetic studies of compounds of the present disclosure in rats
The vehicle for the Po group compound was 5% DMSO + 5% ethanol + 60% PEG400 + 30% normal saline; the vehicle for the Iv group compound was 10% ethanol + 20% pure water + 70% PEG400 solution.

SMILES | half-life (male, SD, iv, 1 mg/kg) [h] | half-life (male, SD, po, 1 mg/kg) [h] | AUC(0-t) (male, SD rats, Iv, 1 mg/kg) [ng·h/mL] | Cmax (male, SD rats, Iv, 1 mg/kg) [ng/mL] | AUC(0-t) (male, SD rats, Po, 1 mg/kg) [ng·h/mL] | Cmax (male, SD rats, Po, 1 mg/kg) [ng/mL] | AUC(0-t) (in vivo, SD rats, Iv, 1 mg/kg) [ng·h/mL] | Cmax (in vivo, SD rats, Iv, 1 mg/kg) [ng/mL] | half-life (in vivo, iv, 1 mg/kg, SD rats) [h] | also measured
Cc1nc(-c2nnn(C)c2NC(=O)OC(C)C23CC(C2)C3)ccc1C#CC1(CC(=O)O)CC1 (racemic) [compound 260] |  |  |  |  |  |  |  |  |  | AUC(0-t) (SD rats, Iv, 1 mg/kg): 5000 to 10000 ng·h/mL; half-life (SD rats, Iv, 1 mg/kg): 8.44 h; Cmax (SD rats, Iv, 1 mg/kg): 800 to 5000 ng/mL; AUC(0-t) (SD rats, Po, 1 mg/kg): 5000 to 10000 ng·h/mL; half-life (SD rats, Po, 1 mg/kg): 9.12 h; Cmax (SD rats, Po, 1 mg/kg): 200 to 800 ng/mL
Cc1nc(-c2nnn(C)c2COC(=O)N(C)CCC(C)(F)F)ccc1C#C[C@@H]1CCC[C@H]1C(=O)O (racemic) [compound 282, trans-2-((6-(5-((((3,3-difluorobutyl)(methyl)carbamoyl)oxy)methyl)-1-methyl-1H-1,2,3-triazol-4-yl)-2-methylpyridin-3-yl)ethynyl)cyclopentane-1-carboxylic acid] | 6.07 | 4.58 | 1200 to 3000 | 800 to 5000 | 1200 to 3000 | 200 to 800 |  |  |  | 
Cc1nc(-c2nnn(C)c2NC(=O)OC(C)CC(C)(F)F)ccc1C#CC1(CC(=O)O)CC1 (racemic) [compound 311] |  |  |  |  |  |  |  |  |  | AUC(0-t) (SD rats, Iv, 1 mg/kg): 5000 to 10000 ng·h/mL; half-life (SD rats, Iv, 1 mg/kg): 9.33 h; Cmax (SD rats, Iv, 1 mg/kg): 800 to 5000 ng/mL; AUC(0-t) (SD rats, Po, 1 mg/kg): 3000 to 5000 ng·h/mL; half-life (SD rats, Po, 1 mg/kg): 8.49 h; Cmax (SD rats, Po, 1 mg/kg): 200 to 800 ng/mL
Cc1nc(-c2nnn(C)c2COC(=O)N(C)CC2CCC2)ccc1C#CC1CC1C(=O)O (racemic) [compound 361] |  |  |  |  |  |  |  |  |  | AUC(0-t) (SD rats, Iv, 1 mg/kg): 1200 to 3000 ng·h/mL; half-life (SD rats, Iv, 1 mg/kg): 3.03 h; Cmax (SD rats, Iv, 1 mg/kg): 800 to 5000 ng/mL; AUC(0-t) (SD rats, Po, 1 mg/kg): 1200 to 3000 ng·h/mL; half-life (SD rats, Po, 1 mg/kg): 2.53 h; Cmax (SD rats, Po, 1 mg/kg): 200 to 800 ng/mL
Cc1nc(-c2nnn(C)c2NC(=O)OC(C)CCCF)ccc1C#CC1(CC(=O)O)CC1 (single isomer, unassigned) [280-B] |  |  |  |  |  |  | 5000 to 10000 | 800 to 5000 | 6.47 | AUC(0-t) (in vivo, SD rats, Po, 3 mg/kg): 10000 to 20000 ng·h/mL; Cmax (in vivo, SD rats, Po, 3 mg/kg): 800 to 5000 ng/mL; half-life (in vivo, po, 3 mg/kg, SD rats): 6.57 h
CCC(F)(F)[C@@H](C)OC(=O)Nc1c(-c2ccc(C#CC3(CC(=O)O)CC(OC)C3)c(C)n2)nnn1C (stereo partly drawn) [compound 279] |  |  |  |  |  |  |  |  |  | AUC(0-t) (SD rats, Iv, 1 mg/kg): 5000 to 10000 ng·h/mL; half-life (SD rats, Iv, 1 mg/kg): 5.82 h; Cmax (SD rats, Iv, 1 mg/kg): 5000 to 8000 ng/mL; AUC(0-t) (SD rats, Po, 1 mg/kg): 5000 to 10000 ng·h/mL; half-life (SD rats, Po, 1 mg/kg): 6.39 h; Cmax (SD rats, Po, 1 mg/kg): 800 to 5000 ng/mL
Cc1nc(-c2nnn(C)c2NC(=O)OC(C)C23CC(F)(C2)C3)ccc1C#CC1(CC(=O)O)CC1 (stereo not drawn) [compound 285] |  |  | 5000 to 10000 | 800 to 5000 | 3000 to 5000 | 200 to 800 |  |  |  | half-life (male, SD rats, Iv, 1 mg/kg): 9.86 h; half-life (male, SD rats, Po, 1 mg/kg): 6.12 h
Cc1nc(-c2nnn(C)c2NC(=O)O[C@H](C)c2ccccc2)ccc1C#C[C@@H]1C[C@H]1C(=O)O [compound 295] | 3.46 | 3.49 | 5000 to 10000 | 800 to 5000 | 10000 to 20000 | 800 to 5000 |  |  |  | 
CCCN(C)C(=O)OCc1c(-c2ccc(C#C[C@@H]3CCC[C@H]3C(=O)O)c(C)n2)nnn1C [compound 355] | 6.65 | 5.53 | 1200 to 3000 | 800 to 5000 | 1200 to 3000 | 200 to 800 |  |  |  | 
CCCc1ccnc(NCc2c(-c3ccc(C#CC4(CC(=O)O)CC4)c(C)n3)nnn2C)n1 [compound 365] |  |  |  |  |  |  |  |  |  | AUC(0-t) (SD rats, Iv, 1 mg/kg): 1200 to 3000 ng·h/mL; half-life (SD rats, Iv, 1 mg/kg): 7.21 h; Cmax (SD rats, Iv, 1 mg/kg): 800 to 5000 ng/mL; AUC(0-t) (SD rats, Po, 1 mg/kg): 1200 to 3000 ng·h/mL; half-life (SD rats, Po, 1 mg/kg): 5.98 h; Cmax (SD rats, Po, 1 mg/kg): 200 to 800 ng/mL

Second part, led by results:

half-life (male, SD, iv, 1 mg/kg) [h] | half-life (male, SD, po, 1 mg/kg) [h] | AUC(0-t) (male, SD rats, Iv, 1 mg/kg) [ng·h/mL] | Cmax (male, SD rats, Iv, 1 mg/kg) [ng/mL] | AUC(0-t) (male, SD rats, Po, 1 mg/kg) [ng·h/mL] | Cmax (male, SD rats, Po, 1 mg/kg) [ng/mL] | AUC(0-t) (in vivo, SD rats, Iv, 1 mg/kg) [ng·h/mL] | Cmax (in vivo, SD rats, Iv, 1 mg/kg) [ng/mL] | half-life (in vivo, iv, 1 mg/kg, SD rats) [h] | SMILES | also measured
10.4 | 9.97 | 5000 to 10000 | 800 to 5000 | 5000 to 10000 | 200 to 800 |  |  |  | Cc1nc(-c2nnn(C)c2NC(=O)O[C@H](C)CC(C)(F)F)ccc1C#C[C@@H]1CC[C@H]1C(=O)O (mixture of isomers) [compound 213, trans-2-((6-(5-(((((R)-4,4-difluoropentan-2-yl)oxy)carbonyl)amino)-1-methyl-1H-1,2,3-triazol-4-yl)-2-methylpyridin-3-yl)ethynyl)cyclobutane-1-carboxylic acid] | 
4.78 | 3.76 | 5000 to 10000 | 800 to 5000 | 5000 to 10000 | 800 to 5000 |  |  |  | CCC[C@@H](C)OC(=O)Nc1c(-c2ccc(C#C[C@@H]3C[C@H]3C(=O)O)c(C)n2)nnn1C (mixture of isomers) [compound 224, trans-2-((2-methyl-6-(1-methyl-5-(((((R)-pentan-2-yl)oxy)carbonyl)amino)-1H-1,2,3-triazol-4-yl)pyridin-3-yl)ethynyl)cyclopropane-1-carboxylic acid] | 
 |  |  |  |  |  | 1200 to 3000 | 800 to 5000 | 7.63 | Cc1nc(-c2nnn(C)c2COC(=O)N(C)CCC(C)(F)F)ccc1C#CC1CCC1C(=O)O (racemic) [compound 359] | AUC(0-t) (in vivo, SD rats, Po, 1 mg/kg): 1200 to 3000 ng·h/mL; Cmax (in vivo, SD rats, Po, 1 mg/kg): 200 to 800 ng/mL; half-life (in vivo, po, 1 mg/kg, SD rats): 6.24 h
 |  |  |  |  |  | 5000 to 10000 | 800 to 5000 | 8.56 | CCC[C@H](C)OC(=O)Nc1c(-c2ccc(C#CC3(CC(=O)O)CC3)c(C)n2)nnn1C [010-B] | AUC(0-t) (in vivo, SD rats, Po, 3 mg/kg): 10000 to 20000 ng·h/mL; Cmax (in vivo, SD rats, Po, 3 mg/kg): 800 to 5000 ng/mL; half-life (in vivo, po, 3 mg/kg, SD rats): 6.85 h
7.36 | 6.9 | 5000 to 10000 | 800 to 5000 | 5000 to 10000 | 200 to 800 |  |  |  | Cc1nc(-c2nnn(C)c2NC(=O)OC(C)CCC(F)F)ccc1C#CC1(CC(=O)O)CC1 (stereo not drawn) [compound 283, 2-(1-((6-(5-((((5,5-difluoropentan-2-yl)oxy)carbonyl)amino)-1-methyl-1H-1,2,3-triazol-4-yl)-2-methylpyridin-3-yl)ethynyl)cyclopropyl)acetic acid] | 
 |  |  |  |  |  | 5000 to 10000 | 800 to 5000 | 4.68 | Cc1nc(-c2nnn(C)c2NC(=O)OC(C)CC(C)(F)F)ccc1C#CC1CC1C(=O)O (stereo not drawn) [compound 291] | AUC(0-t) (in vivo, SD rats, Po, 1 mg/kg): 3000 to 5000 ng·h/mL; Cmax (in vivo, SD rats, Po, 1 mg/kg): 800 to 5000 ng/mL; half-life (in vivo, po, 1 mg/kg, SD rats): 5.15 h
 |  |  |  |  |  | 3000 to 5000 | 800 to 5000 | 7.66 | Cc1nc(-c2nnn(C)c2NC(=O)O[C@H](C)CC(C)(C)F)ccc1C#C[C@@H]1CC[C@H]1C(=O)O [compound 306] | AUC(0-t) (in vivo, SD rats, Po, 1 mg/kg): 3000 to 5000 ng·h/mL; Cmax (in vivo, SD rats, Po, 1 mg/kg): 200 to 800 ng/mL; half-life (in vivo, po, 1 mg/kg, SD rats): 7.2 h
 |  |  |  |  |  | 3000 to 5000 | 800 to 5000 | 8.42 | Cc1nc(-c2nnn(C)c2NC(=O)O[C@H](C)CCC(C)(F)F)ccc1C#CC1(CC(=O)O)CC1 [compound 314] | AUC(0-t) (in vivo, SD rats, Po, 1 mg/kg): 5000 to 10000 ng·h/mL; Cmax (in vivo, SD rats, Po, 1 mg/kg): 200 to 800 ng/mL; half-life (in vivo, po, 1 mg/kg, SD rats): 6.41 h

From patent EP4755881A1 (Wuhan Createrna Science and Technology Co., Ltd., priority 2023, dated 2025)
